# Results taken from ChEMBL document CHEMBL1201862, “PubChem BioAssay data set” (2004).
# Calls of active or inactive are those of the source.
# How the values were obtained:
# [1] = target: T1, Coagulation factor XII (Homo sapiens, UniProt P00748); type: functional;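 note: activated factor XIIa alpha cleaving a fluorogenic AMC peptide substrate; inhibitor potency from loss of enzyme activity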
# T1 sequence (P00748 whole entry): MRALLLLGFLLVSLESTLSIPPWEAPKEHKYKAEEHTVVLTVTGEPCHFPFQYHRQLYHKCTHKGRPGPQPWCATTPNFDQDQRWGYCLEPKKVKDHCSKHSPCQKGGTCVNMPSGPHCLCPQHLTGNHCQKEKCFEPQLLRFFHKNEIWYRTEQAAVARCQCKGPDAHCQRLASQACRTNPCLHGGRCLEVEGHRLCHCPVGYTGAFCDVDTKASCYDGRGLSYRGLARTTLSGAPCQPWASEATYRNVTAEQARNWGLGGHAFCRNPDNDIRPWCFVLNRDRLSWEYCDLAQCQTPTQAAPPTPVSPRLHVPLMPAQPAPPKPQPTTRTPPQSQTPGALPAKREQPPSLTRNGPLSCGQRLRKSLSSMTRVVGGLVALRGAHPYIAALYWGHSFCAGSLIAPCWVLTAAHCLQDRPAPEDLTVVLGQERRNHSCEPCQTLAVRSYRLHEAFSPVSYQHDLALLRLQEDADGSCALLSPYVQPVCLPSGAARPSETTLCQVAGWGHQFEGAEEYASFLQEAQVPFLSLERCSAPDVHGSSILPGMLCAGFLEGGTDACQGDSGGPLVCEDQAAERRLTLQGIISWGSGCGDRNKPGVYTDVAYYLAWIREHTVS
# [2] = target: T2, Estrogen receptor (Homo sapiens, UniProt P03372);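 note: potency for inhibiting coactivator peptide recruitment to the receptor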
# T2 sequence (P03372 whole entry): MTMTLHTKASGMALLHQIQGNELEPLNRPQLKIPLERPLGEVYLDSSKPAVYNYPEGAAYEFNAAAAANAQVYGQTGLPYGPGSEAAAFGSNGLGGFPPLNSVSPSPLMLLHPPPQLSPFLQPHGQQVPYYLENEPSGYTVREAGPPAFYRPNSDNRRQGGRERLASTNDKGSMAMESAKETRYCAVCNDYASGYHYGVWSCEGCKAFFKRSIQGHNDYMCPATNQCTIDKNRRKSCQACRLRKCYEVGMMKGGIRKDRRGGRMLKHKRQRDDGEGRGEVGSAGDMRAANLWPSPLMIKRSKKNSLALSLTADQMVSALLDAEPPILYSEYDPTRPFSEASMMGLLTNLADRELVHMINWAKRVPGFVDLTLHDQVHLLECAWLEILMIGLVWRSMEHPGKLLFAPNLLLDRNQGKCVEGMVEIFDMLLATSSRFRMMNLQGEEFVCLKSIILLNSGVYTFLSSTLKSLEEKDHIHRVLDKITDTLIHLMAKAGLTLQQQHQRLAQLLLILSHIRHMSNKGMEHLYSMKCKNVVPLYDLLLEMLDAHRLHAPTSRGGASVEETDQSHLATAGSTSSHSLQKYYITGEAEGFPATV
# [3] = target: T3, Voltage-gated N-type calcium channel alpha-1B subunit/Amyloid beta A4 precursor protein-binding family A member 1 (Homo sapiens, UniProt Q00975+Q02410); type: protein assay
# T3 sequence (Q00975 whole entry): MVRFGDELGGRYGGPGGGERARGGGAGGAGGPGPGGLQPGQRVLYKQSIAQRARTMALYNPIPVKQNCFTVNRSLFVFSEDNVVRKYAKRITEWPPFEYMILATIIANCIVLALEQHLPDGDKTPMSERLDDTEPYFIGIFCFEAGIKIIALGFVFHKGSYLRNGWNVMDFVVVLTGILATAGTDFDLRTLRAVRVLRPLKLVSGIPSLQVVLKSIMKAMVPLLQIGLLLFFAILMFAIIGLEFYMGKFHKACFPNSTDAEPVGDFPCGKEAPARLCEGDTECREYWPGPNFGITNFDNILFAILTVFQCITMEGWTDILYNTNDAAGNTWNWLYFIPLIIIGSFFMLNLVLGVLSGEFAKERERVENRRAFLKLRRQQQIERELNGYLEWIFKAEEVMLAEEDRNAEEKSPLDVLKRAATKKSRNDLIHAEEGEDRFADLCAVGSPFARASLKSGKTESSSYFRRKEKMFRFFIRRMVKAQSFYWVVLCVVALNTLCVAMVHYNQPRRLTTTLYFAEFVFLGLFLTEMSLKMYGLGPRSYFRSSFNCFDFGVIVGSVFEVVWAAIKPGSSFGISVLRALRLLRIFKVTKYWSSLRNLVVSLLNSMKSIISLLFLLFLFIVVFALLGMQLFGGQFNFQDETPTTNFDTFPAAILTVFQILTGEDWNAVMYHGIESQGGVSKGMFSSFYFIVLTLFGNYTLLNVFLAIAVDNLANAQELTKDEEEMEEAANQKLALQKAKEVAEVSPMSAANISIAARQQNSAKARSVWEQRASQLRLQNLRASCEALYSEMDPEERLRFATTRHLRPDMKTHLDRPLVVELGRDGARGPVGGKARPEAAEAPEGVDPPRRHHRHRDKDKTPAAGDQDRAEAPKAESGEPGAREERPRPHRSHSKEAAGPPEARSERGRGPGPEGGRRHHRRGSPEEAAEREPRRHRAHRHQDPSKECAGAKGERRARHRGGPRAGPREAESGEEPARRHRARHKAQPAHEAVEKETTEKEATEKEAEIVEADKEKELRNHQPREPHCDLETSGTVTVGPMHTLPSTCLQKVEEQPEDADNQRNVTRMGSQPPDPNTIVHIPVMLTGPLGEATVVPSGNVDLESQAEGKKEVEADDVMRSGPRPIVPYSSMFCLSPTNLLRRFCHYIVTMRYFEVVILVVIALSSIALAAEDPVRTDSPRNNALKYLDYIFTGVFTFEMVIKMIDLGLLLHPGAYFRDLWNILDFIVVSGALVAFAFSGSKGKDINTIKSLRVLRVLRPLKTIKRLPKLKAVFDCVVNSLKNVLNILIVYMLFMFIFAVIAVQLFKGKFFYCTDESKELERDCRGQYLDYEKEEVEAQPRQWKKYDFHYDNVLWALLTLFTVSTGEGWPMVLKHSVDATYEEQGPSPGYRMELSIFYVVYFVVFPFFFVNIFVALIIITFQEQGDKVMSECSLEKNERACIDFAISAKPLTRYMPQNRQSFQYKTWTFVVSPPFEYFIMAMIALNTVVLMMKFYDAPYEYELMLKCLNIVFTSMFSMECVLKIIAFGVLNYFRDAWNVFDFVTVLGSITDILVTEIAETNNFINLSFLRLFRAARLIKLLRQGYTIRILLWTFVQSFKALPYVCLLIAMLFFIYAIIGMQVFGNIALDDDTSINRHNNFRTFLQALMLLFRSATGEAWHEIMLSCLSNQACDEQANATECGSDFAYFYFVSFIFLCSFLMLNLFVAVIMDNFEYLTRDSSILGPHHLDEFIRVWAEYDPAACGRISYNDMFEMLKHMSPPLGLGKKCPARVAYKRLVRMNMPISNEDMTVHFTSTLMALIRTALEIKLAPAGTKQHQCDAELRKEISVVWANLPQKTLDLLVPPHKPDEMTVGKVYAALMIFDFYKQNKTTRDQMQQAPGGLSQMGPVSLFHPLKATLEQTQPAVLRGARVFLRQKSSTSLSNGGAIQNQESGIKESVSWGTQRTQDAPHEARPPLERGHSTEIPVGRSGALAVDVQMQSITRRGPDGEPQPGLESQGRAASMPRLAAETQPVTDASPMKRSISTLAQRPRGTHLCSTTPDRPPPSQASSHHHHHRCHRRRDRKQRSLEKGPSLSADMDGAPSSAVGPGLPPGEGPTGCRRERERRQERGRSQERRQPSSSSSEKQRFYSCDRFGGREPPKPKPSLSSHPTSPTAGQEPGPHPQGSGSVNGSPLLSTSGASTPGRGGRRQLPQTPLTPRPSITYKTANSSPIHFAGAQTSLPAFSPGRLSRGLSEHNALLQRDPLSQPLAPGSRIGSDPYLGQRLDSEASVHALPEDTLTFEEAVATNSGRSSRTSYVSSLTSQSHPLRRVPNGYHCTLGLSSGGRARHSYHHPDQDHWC
# T3 sequence (Q02410 whole entry): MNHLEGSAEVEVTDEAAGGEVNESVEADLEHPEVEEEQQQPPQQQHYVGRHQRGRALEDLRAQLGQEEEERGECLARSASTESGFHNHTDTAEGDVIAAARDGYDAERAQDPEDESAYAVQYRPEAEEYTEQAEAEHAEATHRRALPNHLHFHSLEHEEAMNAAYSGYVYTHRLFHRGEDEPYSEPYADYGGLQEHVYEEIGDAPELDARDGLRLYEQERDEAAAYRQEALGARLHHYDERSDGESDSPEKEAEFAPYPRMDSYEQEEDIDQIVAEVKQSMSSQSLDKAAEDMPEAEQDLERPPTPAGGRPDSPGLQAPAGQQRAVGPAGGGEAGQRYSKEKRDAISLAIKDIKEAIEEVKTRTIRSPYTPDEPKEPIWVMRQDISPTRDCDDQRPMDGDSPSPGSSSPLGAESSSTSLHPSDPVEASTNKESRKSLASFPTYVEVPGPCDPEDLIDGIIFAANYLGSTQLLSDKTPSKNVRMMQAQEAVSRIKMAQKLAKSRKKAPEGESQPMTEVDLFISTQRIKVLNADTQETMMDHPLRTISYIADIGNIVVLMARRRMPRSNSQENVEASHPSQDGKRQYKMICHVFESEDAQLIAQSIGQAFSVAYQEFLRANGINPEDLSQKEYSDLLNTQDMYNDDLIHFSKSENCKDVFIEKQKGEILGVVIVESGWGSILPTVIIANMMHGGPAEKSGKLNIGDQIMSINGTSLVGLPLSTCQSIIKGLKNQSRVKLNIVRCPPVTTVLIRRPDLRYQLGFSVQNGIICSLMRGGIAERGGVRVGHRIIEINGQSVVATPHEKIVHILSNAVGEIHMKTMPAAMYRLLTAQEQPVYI
# [4] = target: T3, Voltage-gated N-type calcium channel alpha-1B subunit/Amyloid beta A4 precursor protein-binding family A member 1; type: protein assay; remark: listed apart in the source
# [5] = HEK-293T viability loss after treatment – luminescence, T-cell screen hits, cytotoxicity control for TCR NF-kB inhibitor project, dose response (AID 489026); type: functional, cell-based;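 note: cells exposed to compound about 14 hours before the viability readout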
# [6] = alpha-synuclein stem-loop luciferase translation blockers – H4 neuroglioma cells, luminescence, confirmation (AID 1988); type: functional, cell-based
# [7] = DRD fibroblast viability loss – cell-based, non-viral oncogenic, luminescence, dose response (AID 1934); type: functional; details: Homo sapiens
# [8] = test system: BJ; experiment: BJ-TERT fibroblast viability loss – cell-based, RAS-independent, luminescence, dose response (AID 1933); type: functional; details: Homo sapiens
# [9] = luciferase reporter signal suppression in cells – H4 neuroglioma cells, luminescence, dose response (AID 1990); type: functional, cell-based
# [10] = Luminescence Cell-Based Dose Response HTS to Identify Inhibitors of 5'UTR Stem-Loop Driven Prion Protein mRNA Translation in H4 Neuroglioblastoma Cells. [Related pubchem assays: 1827 (Project Summary), 1813 (Primary HTS)]; type: functional
# [11] = Luminescence Cell-Based Dose Retest to Confirm Inhibitors of Cancer Stem Cells. [Related pubchem assays (depositor defined):AID2717, AID2721]; type: functional; details: Homo sapiens
# [12] = test system: BJ; experiment: BJ-TERT-LT-ST fibroblast viability loss – cell-based, RAS-independent, luminescence, dose response (AID 1935); type: functional; details: Homo sapiens;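 note: BJ fibroblasts immortalized with TERT plus LT and ST oncogenes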
# [13] = test system: BJ; experiment: cells; type: functional, cell-based; details: Homo sapiens
# [14] = THP-1 cell cytotoxicity, dose response, cytotoxicity control for non-replicating M. tuberculosis project (AID 489025); type: functional
# [15] = cells; type: functional
# [16] = test system: Vero; experiment: cells; type: functional; details: Chlorocebus sabaeus
# [17] = fluconazole-exposed Candida albicans growth modulators – fluorescence, retest, confirmation (AID 2467); type: functional, cell-based
# [18] = NIH-3T3 fibroblast cytotoxicity, dose response, cytotoxicity control, cell-based, fluorescence, Alamar Blue, secondary assay (AID 2327); type: functional;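 note: NIH-3T3 mouse fibroblasts cultured with fluconazole at 8 µg/mL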
# [19] = target: Induced myeloid leukemia cell differentiation protein Mcl-1 (Homo sapiens, UniProt Q07820); type: functional
# Sequence of Induced myeloid leukemia cell differentiation protein Mcl-1 (Q07820 whole entry): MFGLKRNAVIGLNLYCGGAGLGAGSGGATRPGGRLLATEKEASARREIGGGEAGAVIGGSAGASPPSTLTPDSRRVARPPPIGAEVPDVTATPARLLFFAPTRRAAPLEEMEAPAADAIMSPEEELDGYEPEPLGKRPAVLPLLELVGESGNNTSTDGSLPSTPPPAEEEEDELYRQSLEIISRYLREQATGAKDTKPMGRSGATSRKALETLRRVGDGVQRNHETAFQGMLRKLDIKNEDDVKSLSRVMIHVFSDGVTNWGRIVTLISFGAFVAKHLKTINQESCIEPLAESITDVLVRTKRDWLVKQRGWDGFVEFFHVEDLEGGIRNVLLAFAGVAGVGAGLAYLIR
# [20] = target: T4, Protein RecA (Mycobacterium tuberculosis, UniProt P9WHJ3); experiment: Fluorescence Cell-Free Homogeneous Dose Retest to Identify Inhibitors of RecA-Intein Splicing Activity. [Related pubchem assays (depositor defined):AID2097, AID2223, AID489010, AID492950]; type: functional
# T4 sequence (P9WHJ3 whole entry): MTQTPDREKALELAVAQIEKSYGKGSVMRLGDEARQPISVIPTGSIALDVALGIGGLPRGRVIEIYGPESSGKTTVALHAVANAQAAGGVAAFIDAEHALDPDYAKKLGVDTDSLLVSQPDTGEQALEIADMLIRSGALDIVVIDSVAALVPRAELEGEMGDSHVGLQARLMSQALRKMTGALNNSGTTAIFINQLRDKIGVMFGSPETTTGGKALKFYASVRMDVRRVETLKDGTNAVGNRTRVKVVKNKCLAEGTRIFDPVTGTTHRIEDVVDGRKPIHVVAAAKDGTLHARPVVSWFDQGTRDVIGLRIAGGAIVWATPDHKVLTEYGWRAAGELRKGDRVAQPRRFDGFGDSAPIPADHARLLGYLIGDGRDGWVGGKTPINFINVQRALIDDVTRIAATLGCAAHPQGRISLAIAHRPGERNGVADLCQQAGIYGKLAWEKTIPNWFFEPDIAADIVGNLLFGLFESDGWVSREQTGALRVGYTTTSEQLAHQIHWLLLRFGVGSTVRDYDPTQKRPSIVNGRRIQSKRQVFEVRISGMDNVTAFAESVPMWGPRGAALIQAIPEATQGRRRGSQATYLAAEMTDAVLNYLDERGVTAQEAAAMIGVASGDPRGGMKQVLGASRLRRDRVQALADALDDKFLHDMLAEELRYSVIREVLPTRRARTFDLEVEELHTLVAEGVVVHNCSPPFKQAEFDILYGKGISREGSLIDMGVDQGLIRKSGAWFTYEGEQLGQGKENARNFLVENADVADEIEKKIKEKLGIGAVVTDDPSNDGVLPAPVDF
# [21] = target: T5, Type-1 angiotensin II receptor (Homo sapiens, UniProt P30556); experiment: antagonism of angiotensin II type 1 receptor – cell-based, uHTS hits, selectivity assay for APJ receptor antagonist project, dose response (AID 463214); type: functional;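 note: antagonist potency against angiotensin II stimulated AT1 response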
# T5 sequence (P30556 whole entry): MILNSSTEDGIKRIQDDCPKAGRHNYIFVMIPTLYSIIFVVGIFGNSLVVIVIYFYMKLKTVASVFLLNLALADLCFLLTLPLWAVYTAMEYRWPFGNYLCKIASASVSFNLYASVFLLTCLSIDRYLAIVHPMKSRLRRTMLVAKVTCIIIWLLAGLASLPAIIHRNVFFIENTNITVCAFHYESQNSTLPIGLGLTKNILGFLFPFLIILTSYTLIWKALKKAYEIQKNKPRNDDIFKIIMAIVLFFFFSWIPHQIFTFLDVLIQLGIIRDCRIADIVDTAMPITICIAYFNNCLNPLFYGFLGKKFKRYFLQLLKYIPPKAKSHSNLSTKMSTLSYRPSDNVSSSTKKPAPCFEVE
# [22] = target: Beta-galactosidase (Escherichia coli, UniProt Q8VNN2); experiment: PubChem AID 485352; type: functional
# Sequence of Beta-galactosidase (Q8VNN2 whole entry): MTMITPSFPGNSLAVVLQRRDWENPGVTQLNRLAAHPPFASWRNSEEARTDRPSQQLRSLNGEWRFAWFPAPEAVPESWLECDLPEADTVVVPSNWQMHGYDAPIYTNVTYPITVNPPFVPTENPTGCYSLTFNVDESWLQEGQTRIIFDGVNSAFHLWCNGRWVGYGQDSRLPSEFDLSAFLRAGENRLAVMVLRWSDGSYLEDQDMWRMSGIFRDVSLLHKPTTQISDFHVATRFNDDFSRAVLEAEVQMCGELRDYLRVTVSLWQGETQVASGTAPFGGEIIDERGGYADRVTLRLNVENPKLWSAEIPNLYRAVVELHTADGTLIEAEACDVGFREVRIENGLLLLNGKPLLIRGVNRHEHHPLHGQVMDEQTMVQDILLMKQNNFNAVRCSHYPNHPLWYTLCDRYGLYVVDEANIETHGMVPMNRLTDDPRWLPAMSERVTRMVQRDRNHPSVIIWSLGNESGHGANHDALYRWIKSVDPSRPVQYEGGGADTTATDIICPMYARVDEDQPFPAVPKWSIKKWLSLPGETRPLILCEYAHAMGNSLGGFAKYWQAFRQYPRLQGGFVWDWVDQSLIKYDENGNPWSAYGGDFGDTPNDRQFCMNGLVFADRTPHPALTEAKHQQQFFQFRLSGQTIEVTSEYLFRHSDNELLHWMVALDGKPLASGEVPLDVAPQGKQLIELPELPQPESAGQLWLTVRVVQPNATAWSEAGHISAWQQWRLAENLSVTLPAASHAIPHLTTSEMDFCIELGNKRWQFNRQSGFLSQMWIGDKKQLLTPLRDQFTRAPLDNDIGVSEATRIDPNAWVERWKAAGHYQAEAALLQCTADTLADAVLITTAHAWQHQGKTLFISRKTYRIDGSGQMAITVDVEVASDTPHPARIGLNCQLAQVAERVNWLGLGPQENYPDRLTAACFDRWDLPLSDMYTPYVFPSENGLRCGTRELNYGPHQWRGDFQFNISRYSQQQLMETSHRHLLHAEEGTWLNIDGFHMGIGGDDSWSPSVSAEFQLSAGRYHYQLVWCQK
# [23] = target: T6, Replicative DNA helicase DnaB (Mycobacterium tuberculosis, UniProt P9WMR3); experiment: DnaB intein splicing inhibitors, dose response, biochemical, cell-free fluorescence (AID 449749); type: functional
# T6 sequence (P9WMR3 whole entry): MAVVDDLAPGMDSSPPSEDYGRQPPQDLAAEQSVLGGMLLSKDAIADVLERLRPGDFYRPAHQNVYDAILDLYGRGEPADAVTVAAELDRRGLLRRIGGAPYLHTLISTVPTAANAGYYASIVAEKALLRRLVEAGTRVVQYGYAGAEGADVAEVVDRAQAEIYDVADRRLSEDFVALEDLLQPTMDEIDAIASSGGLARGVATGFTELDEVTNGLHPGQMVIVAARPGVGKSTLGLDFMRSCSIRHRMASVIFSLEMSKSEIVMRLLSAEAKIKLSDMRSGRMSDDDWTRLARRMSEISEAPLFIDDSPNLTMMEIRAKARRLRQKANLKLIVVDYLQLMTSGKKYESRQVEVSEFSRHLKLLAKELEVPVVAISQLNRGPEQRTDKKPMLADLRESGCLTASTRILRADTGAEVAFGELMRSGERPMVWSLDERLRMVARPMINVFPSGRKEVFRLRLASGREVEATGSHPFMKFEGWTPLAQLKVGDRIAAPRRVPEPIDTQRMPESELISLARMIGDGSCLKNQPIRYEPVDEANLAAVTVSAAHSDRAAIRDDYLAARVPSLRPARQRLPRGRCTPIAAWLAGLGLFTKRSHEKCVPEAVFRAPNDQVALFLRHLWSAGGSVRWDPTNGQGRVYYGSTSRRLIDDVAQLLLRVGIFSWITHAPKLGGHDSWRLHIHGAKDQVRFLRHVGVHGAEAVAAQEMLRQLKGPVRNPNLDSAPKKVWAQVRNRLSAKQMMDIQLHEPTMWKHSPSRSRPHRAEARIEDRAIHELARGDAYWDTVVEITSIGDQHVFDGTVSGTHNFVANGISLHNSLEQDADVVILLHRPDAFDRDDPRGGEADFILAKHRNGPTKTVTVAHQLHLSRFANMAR
# [24] = target: Cytochrome P450 3A4 (Homo sapiens, UniProt P08684);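 note: CYP3A4 tested as one member of a cytochrome P450 panel screen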
# Sequence of Cytochrome P450 3A4 (P08684 whole entry): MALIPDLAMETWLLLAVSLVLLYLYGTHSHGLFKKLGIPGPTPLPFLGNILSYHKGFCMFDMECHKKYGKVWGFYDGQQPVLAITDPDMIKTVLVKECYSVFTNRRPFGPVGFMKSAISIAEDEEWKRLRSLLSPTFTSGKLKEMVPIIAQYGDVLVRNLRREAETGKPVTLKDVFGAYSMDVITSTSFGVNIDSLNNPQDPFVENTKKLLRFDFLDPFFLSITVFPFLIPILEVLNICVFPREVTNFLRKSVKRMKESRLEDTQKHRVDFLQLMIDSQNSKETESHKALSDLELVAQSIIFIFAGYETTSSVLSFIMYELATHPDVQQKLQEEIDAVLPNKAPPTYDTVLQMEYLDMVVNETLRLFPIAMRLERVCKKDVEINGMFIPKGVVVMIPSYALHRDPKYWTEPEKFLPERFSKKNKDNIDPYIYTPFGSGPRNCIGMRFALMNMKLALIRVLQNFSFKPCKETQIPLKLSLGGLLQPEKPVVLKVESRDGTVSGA
structure (smiles),measurement,setting,value
CN1CCN(S(=O)(=O)c2ccc(Br)s2)CC1,IC50,[1],> 50 µM (inactive)
CCCc1nnc2n1N=C(c1ccc(-c3cc(Cl)ccc3Cl)o1)CS2,IC50,[2],13.4 µM (active)
O=c1[nH]c(-c2ccc3c(c2)OCO3)nc2c1sc(=S)n2-c1ccccc1,IC50,[3],5.13 µM (active)
same,IC50,[4],> 50 µM (inactive)
CCOc1ccc(NC(=N)Nc2nc(O)cc(CSc3nnc(C)s3)n2)cc1,IC50,[5],> 80 µM (inactive)
same,EC50,[6],5.83 µM (active)
same,EC50,[7],0.597 µM (active)
same,EC50,[8],1.11 µM (active)
same,EC50,[9],9.79 µM (active)
same,EC50,[10],0.291 µM (active)
same,AC50,[11],0.298 µM (active)
same,EC50,[12],1.37 µM (active)
same,EC50,[13],20.6 µM (active)
COc1cc(OC)nc(NC(=O)C(C)C)n1,IC50,[2],> 50 µM (not active)
OC(CNCCc1ccc(C(F)(F)F)cc1)COc1ccc2ccccc2c1 (stereo not drawn),CC50,[14],> 40 µM (active)
same,IC50,[15],22.4 µM (active)
same,CC50,[16],16.6 µM (active)
same,EC50,[17],> 38 µM (not active)
same,AC50,[11],3.34 µM (active)
same,EC50,[18],7.21 µM (active)
CC(/C=C/c1ccco1)=N\NC(=O)c1cc(C)[nH]n1,IC50,[19],4.92 µM (active)
same,IC50,[3],4.52 µM (active)
same,IC50,[4],11.8 µM (active)
COc1cccc(NC(=N)Nc2nc(O)cc(CSc3ccccn3)n2)c1,IC50,[5],> 80 µM (inactive)
CCN(CC)C(=O)C(C(=O)c1cccc([N+](=O)[O-])c1)n1cc(Cl)ccc1=O (stereo not drawn),EC50,[7],> 150 µM (not active)
same,EC50,[8],> 150 µM (not active)
same,EC50,[12],> 150 µM (inconclusive)
same,EC50,[13],> 150 µM (not active)
CCOc1ccc(N=C(N)Nc2nc(CSc3nnc(C)s3)cc(=O)[nH]2)cc1,IC50,[1],> 50 µM (inactive)
COC(=O)CS(=O)(=O)c1nnc([C@H](Cc2ccccc2)NC(=O)OC(C)(C)C)o1,EC50,[20],7.24 µM (active)
same,IC50,[21],12.4 µM (active)
same,EC50,[22],> 40 µM (inactive)
same,AC50,[23],6.11 µM (active)
same,IC50,[1],8.95 µM (active)
CCCCOc1ccccc1C1CC(=O)NC2=C1C(=O)CCC2 (stereo not drawn),IC50,[5],> 80 µM (inactive)
same,AC50,[24],15.8 µM (inconclusive)
COc1cc(NC(=O)c2ccccc2F)ccc1NC(=O)c1cc2ccccc2o1,IC50,[3],15.9 µM (active)
same,IC50,[4],> 50 µM (inactive)
COC(Cn1c(C)c(C(C)=O)c(C(C)=O)c1C)OC,IC50,[1],> 50 µM (inactive)
O=C(CSc1nc2c(c(=O)n1-c1ccc(Br)cc1)SCC2)Nc1nccs1,IC50,[2],> 50 µM (not active)
Cc1cccc(Nc2cc(=O)[nH]c(=O)[nH]2)c1C,IC50,[1],> 50 µM (inactive)
O=C(Nc1cnc(O)nc1O)c1ccc2c(c1)C(=O)N(c1cccc([N+](=O)[O-])c1)C2=O,IC50,[3],9.85 µM (active)
same,IC50,[4],> 50 µM (inactive)
